Experiment [1] concerns Hs578T cells. The experiment in a line: AlamarBlue cell viability assay. The experiment is classed as cell-based. The following applies: Homo sapiens, Hs-578T. Here is the method:
(§1) The potent 3-fluoro-β-lactam compound 33 synthesised was also evaluated in the triple-negative MDA-MB-231 cell line which lacks expression of the estrogen and progesterone receptors (ER/PR) and the HER2 receptor. […]. Compound 32 was also evaluated in the triple-negative breast cancer cell line Hs578T and its isogenic subclone Hs578T(i)8 (Figure 4C). Hs578Ts(i)8 cells have 2.5-fold more migratory capacity and 3-fold more invasive capacity through the extracellular matrix than the parental cell line (Hs578T) and have 30% more CD44+/CD24-/low cells and in vivo proliferation. […]. The human breast carcinoma cell lines MCF-7 and MDA-MB-231 were purchased from the European Collection of Animal Cell Cultures (ECACC, Salisbury, UK). The SW-480 cells were a kind gift from Dr. Brian Flood, School of Biochemistry and Immunology, Trinity College Dublin. The human breast tumour cell line MCF-7 was cultured in Eagles minimum essential medium with 10% foetal bovine serum, 2 mM L-glutamine and 100 μg/mL penicillin/streptomycin. The medium was supplemented with 1% non-essential amino acids. The human breast tumour cell line MDA-MB-231 cells were maintained in Dulbecco’s modified Eagle’s medium (DMEM) with the addition of penicillin/streptomycin (100 µg/mL), 10% (v/v) foetal bovine serum and 2 mM L-glutamine (complete medium). Breast cancer cell line Hs578T and its isogenic subclone Hs578T(i)8 were a kind gift from Dr. Susan McDonnell, School of Chemical and Bioprocess Engineering, University College Dublin. SW-480 cells, triple-negative breast cancer Hs578T cells and invasive variant Hs578T8i cells were cultured in DMEM with GlutaMAX-I, with the same supplement in the absence of non-essential amino acids. HEK-293T cells (normal epithelial embryonic kidney cells) were cultured in DMEM with GlutaMAX-I in the absence of non-essential amino acids. The SW-480 cells were cultured in DMEM with GlutaMAX-I, with the same supplement in the absence of non-essential amino acids. All media contained 100 U/mL penicillin and 100 μg/mL streptomycin. The cells were seeded into pre-warmed complete medium (10 × 10^4 cells/mL) and maintained at a cell density of 2–19 × 10^5 cells /mL by the addition of fresh media. The cell number was monitored using a haemocytometer. Cells were maintained at 37 °C in 5% CO2 in a humidified incubator. […]
(§2) Figure 4 Antiproliferative activity of 3-fluoro β-lactams on MCF-7, MDA-MB-231, Hs578T and Hs578T isogenic subclone Hs578T(i)8 breast cancer cells and non-tumourigenic HEK-293T cells. […] Cell viability was expressed as a percentage of vehicle control (ethanol 1% (v/v))-treated cells. […] Cell viability was expressed as a percentage of vehicle control (ethanol 1% (v/v))-treated cells and was measured by AlamarBlue assay (average of three independent experiments). […]
(In general: The colour change of resazurin is a common sign of viable cells or microbes.)

In experiment [2] the test system is Hs578Ts(i)8 cells. The experiment in a line: AlamarBlue cell viability assay. It is filed as cell-based. On the procedure:
as §1, §2

Experiment [3] concerns MCF-7 human breast cancer cells. Kind of experiment: AlamarBlue cell viability assay. It is filed as cell-based. The following applies: Homo sapiens, MCF7, 72 h. Here is the method:
The antiproliferative potential of the synthesised 3-fluoro β-lactams 26–35 and 3,3-difluoro β-lactams 36–45 was evaluated in MCF-7 human breast cancer cells using the AlamarBlue assay, with CA-4 as reference compound (Figure 3). […] The results for the preliminary in vitro antiproliferative screen for 3-fluoro β-lactam compounds (26–29), which contain different substituents at the para position in the B ring, are presented in Figure 3A.
Cells were seeded at a density of 5 × 10^3 cells/well (MCF-7 and MDA-MB-231) and 1 × 10^4 cells/well (HEK-293T) in 96-well plates (200 μL per well). After 24 h, cells were then treated with medium alone, with vehicle (1% ethanol (v/v)) or with CA-4 or β-lactam compounds at 1 μM and 10 μM concentrations. […] Cell proliferation for MCF-7 cells was analysed with the AlamarBlue assay (Invitrogen Corp.) as previously described by us. After 72 h, AlamarBlue (10% (v/v)) was added to each well, and plates were incubated for 3–5 h at 37 °C in the dark. Fluorescence results were obtained with a 96-well fluorimeter with excitation at 530 nm and emission at 590 nm with results recorded as percentage viability relative to vehicle control (100%). Dose–response curves were obtained and IC50 values (concentration of drug resulting in 50% reduction in cell survival) were calculated using Prism (GraphPad Software, Inc., La Jolla, CA, USA).
Figure 3 Preliminary cell viability data for 3-fluoro and 3,3-difluoro β-lactam compounds. (A) 3-Fluoro β-lactam compounds containing different para-substituent ring B 26–29; 3-fluoro β-lactam compounds containing different meta-substituent ring B 30, 32–35; (B) 3-difluoro β-lactam compounds containing different para-substituent ring B 36–39; 3-difluoro β-lactam compounds containing different meta-substituent ring B 40, 42–45 in MCF-7 breast cancer cells. Cell proliferation of MCF-7 cells was determined with an AlamarBlue assay (seeding density […] for 96-well plates). Compound concentrations of either 10 μM or 1 μM for 72 h were used to treat the cells with control wells containing vehicle ethanol (1% v/v) and CA-4 (10 μM and 1 μM). The mean value for three experiments is shown with the ± S.E.M. for three independent experiments.

Experiment [4] deals with MCF-7 cells. Kind of experiment: Immunofluorescence confocal microscopy of the microtubule network. The experiment is classed as cell-based, human. The note with it: MCF-7, 16 h; 33 0.1, 0.5 and 1.0 μM; paclitaxel 1.0 μM; CA-4 0.01 μM. On the procedure:
The tubulin-targeting effect of compound 33 on the microtubule network of MCF-7 cells was further evaluated by immunofluorescence studies to identify the cellular effects that are relevant to its mechanism of action by inhibiting the polymerisation of tubulin. […] Treatment of MCF-7 cells with compound 33 (0.1, 0.5 and 1.0 μM) induced cell rounding and distinct abnormalities of the spindle formation as well as a loss of the structured tubulin that impacts the microtubule network structure in a dose-dependent manner.
Confocal microscopy was used to determine the effects of novel compound 33 and standard drugs on the MCF-7 cytoskeleton according to the protocols we previously described. For the immunofluorescence study, MCF-7 cells were seeded at 1 × 10^5 cells/mL using eight chamber glass slides (BD Biosciences). The cells were treated with vehicle control (1% ethanol (v/v)), CA-4 (0.01 μM), paclitaxel (1 µM) and 33 (0.1 µM, 0.5 µM and 1 µM) for 16 h. The cells were gently washed in PBS, fixed with 4% paraformaldehyde in PBS (20 min) and permeabilised in 0.5% Triton X-100. After further washes in PBS (containing 0.1% Tween (PBST)), cells were blocked with 5% bovine serum albumin which was diluted with PBST. Cells were incubated with mouse monoclonal anti-α-tubulin–FITC antibody (clone DM1A) (Sigma) (1:100) at 20 °C for 2 h and then washed in PBST and incubated with Alexa Fluor 488 dye (1:500) for 1 h at 20 °C. Cells were washed in PBST and mounted in Ultra Cruz Mounting Media (Santa Cruz Biotechnology, Santa Cruz, CA, USA) containing 4,6-diamino-2-phenolindol dihydrochloride (DAPI). The images were captured by Leica SP8 confocal microscopy with Leica Application Suite X software. Experiments were performed on three independent occasions and images were collected on the same day using identical parameters.
Figure 8 Compound 33 acts as depolymeriser of the microtubule network of MCF-7 breast cancer cells. Cells were treated with vehicle control ([…]), CA-4 (0.01 μM), paclitaxel (1 μM) or compound 33 (0.1, 0.5 and 1 μM) for 16 h. […]

Experiment [5] relates to purified bovine brain tubulin. The experiment in a line: Tubulin polymerisation assay (turbidimetric, 340 nm). It is filed as biochemical. The following applies: paclitaxel 10 µM; 33 10 and 30 µM. On the procedure: Tubulin polymerisation was investigated using a turbidimetric assay which determines the light scattering by microtubules (absorbance at 340 nm) that is proportional to the microtubule polymer concentration.
Tubulin polymerisation was monitored with purified bovine tubulin using the BK006 kit supplied by Cytoskeleton Inc. (Denver, CO, USA), carried out following the manufacturer’s instructions with the standard assay conditions. Purified (>99%) bovine brain tubulin (3 mg/mL) in a buffer containing PIPES (80 mM, pH 6.9), EGTA (0.5 mM), MgCl2 (2 mM), GTP (1 mM) and glycerol (10%) was incubated at 37 °C in the presence of either vehicle (2% (v/v) ddH2O) or paclitaxel (10 µM), CA-4 (10 μM) or 33 (10 and 30 µM). The effect on tubulin assembly was monitored turbidimetrically at 340 nm in a Spectramax 340 PC spectrophotometer (Molecular Devices, Sunnyvale, CA, USA), with the light scattered depending on the concentration of polymerised microtubules formed. The absorbance was measured at 30 s intervals for 60 min.
Figure 7 Effect of β-lactam compound 33 (10 and 30 µM) and paclitaxel (10 µM) on in vitro tubulin polymerisation. Purified bovine tubulin and GTP were mixed in a 96-well plate. Compounds were added and the reaction was started by warming the solution from 4 to 37 °C. Ethanol (1% v/v) was used as a vehicle control. The effect on tubulin assembly was monitored in a Spectramax 340PC spectrophotometer at 340 nm at 30 s intervals for 30 min at 37 °C. […] Each experiment was performed in duplicate.

pIC50: −log10 of the molar value.

Data on 2 compounds can be found in PMC9501633, “Synthesis, Characterisation and Mechanism of Action of Anticancer 3-Fluoroazetidin-2-ones” (Pharmaceuticals, 2022).

For orientation: pIC50 means −log10 of the IC50, conventionally taken in molar units. A higher pIC50 goes with a low IC50. Turning to `COc1ccc(C2C(F)C(=O)N2c2cc(OC)c(OC)c(OC)c2)cc1O` (stereo not drawn) [Compound 32, 3-Fluoro-4-(3-hydroxy-4-methoxyphenyl)-1-(3,4,5-trimethoxyphenyl)azetidin-2-one], the pIC50 in experiment [1] was 7.48; in experiment [2], 7.19; in experiment [3] (MCF-7, 72 h), 7.12. Besides, the viability at 1 µM in experiment [3] (MCF-7, 1 μM, 72 h, read-out: viable cells remaining) worked out at 30%.

On to `CC(=O)O[C@H]1C(=O)[C@@]2(C)[C@H]([C@H](OC(=O)c3ccccc3)[C@]3(O)C[C@H](OC(=O)[C@H](O)[C@@H](NC(=O)c4ccccc4)c4ccccc4)C(C)=C1C3(C)C)[C@]1(OC(C)=O)CO[C@@H]1C[C@@H]2O` [Paclitaxel, reference compound], for which the “effect on the microtubule network” value in experiment [4] is reported as “significant stabilisation of microtubules”. Further, in experiment [5], the “effect on tubulin polymerisation” value is “stabilises the tubulin”.
